From patent publication US11802128B2, “Azetidine and pyrrolidine PARP1 inhibitors and uses thereof” (Xinthera, Inc., priority 2021, dated 2023)
Like-named read-outs stand apart in the source and are kept apart here.

Tests used:
DLD-1 BRCA2(−/−) cells = assay: Cell growth inhibition assay (CellTiter-Glo cell viability, 7 days); type: cell-based; settings: Homo sapiens, 168 h
Description: (§1) The objective of this study is to evaluate the effect of invention compounds on cell proliferation through the cell viability assay in DLD-1 BRCA2(−/−) and parental isogenic pair and MDA-MB-436 (mutated BRCA1) cell lines. The CellTiter-Glo (CTG) based cell viability assay is designed to determine the number of viable cells in the culture because of compound effect, by quantifying ATP, which indicates the presence of metabolically active cells.
(§2) DLD-1 BRCA2(−/−) and parental isogenic pair were cultured in RPMI 1640 supplemented with 10% fetal bovine serum (FBS), and MDA-MB-436 cells were cultured in DMEM supplemented with 10% FBS. Both are culture at 37° C. with 5% CO2. Invention compounds were distributed to the 384 well plate (Corning, 3764) using Echo acoustic liquid handler to form a 1:3 serially diluted final concentration with top dose of 10 or 30 μM. The cells were seeded into the plate in the density of 50 cells/well (DLD-1 parental), 200 cells/well (DLD-1 BRCA2−/−), or 500 cells/well (MDA-MB-436). After a short spun, the cells were cultured in a well moisturized incubator at 37° C. with 5% CO2 for 7 days without disturbance. The cell viability was measured by CellTiter Glo 2.0 assay kit (Promega, G9243), and growth inhibition rate was calculated and plotted against final compound concentration, and the data were fitted in Xfit to generate IC50.

[1] = system: MDA-MB-436 (mutated BRCA1) cells; assay: as above; type: cell-based; settings: Homo sapiens, 168 h, MDA-MB-436, 7 days
Description: as §1, §2

PARP1 = PARP1 (Homo sapiens (Human), UniProt P09874); assay: Biochemical fluorescent polarization (FP) assay, displacement of PARPi-FL; type: binding; settings: 20 nM protein, 3 nM PARPi-FL, 4 h at room temperature
Chain of PARP1 (P09874 whole entry): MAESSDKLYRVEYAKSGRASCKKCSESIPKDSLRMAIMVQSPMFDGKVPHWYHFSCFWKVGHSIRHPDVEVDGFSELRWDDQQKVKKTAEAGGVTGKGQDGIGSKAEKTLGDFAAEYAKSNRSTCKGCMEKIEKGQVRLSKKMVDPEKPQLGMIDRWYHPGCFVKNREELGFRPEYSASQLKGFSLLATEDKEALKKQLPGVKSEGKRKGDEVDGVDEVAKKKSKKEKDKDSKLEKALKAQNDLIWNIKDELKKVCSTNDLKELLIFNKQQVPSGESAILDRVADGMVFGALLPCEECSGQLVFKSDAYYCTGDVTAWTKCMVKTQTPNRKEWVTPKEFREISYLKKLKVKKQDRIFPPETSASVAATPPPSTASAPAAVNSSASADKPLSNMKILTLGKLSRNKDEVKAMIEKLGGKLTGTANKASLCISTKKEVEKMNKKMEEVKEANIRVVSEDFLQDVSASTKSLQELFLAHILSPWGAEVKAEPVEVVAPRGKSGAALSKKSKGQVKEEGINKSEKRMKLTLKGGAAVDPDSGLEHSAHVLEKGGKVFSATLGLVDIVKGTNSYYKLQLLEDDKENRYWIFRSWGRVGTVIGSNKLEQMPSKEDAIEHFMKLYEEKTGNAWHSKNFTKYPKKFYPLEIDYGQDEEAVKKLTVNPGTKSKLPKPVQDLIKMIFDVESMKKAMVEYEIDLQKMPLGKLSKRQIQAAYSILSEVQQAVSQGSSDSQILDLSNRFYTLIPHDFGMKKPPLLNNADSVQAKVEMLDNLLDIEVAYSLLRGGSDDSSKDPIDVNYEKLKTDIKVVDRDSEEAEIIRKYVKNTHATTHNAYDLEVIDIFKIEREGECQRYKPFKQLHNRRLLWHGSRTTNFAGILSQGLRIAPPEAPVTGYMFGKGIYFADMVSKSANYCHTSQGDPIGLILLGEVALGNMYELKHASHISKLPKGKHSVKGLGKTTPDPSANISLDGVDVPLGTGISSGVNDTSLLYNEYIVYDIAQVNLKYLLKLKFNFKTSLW
Procedure: (§3) The assay was performed utilizing the following method:
(§4) 100% DMSO was used for the high (with protein) and low (without protein) control samples. 20 nL of compound or DMSO alone was added to individual assay plate wells.
(§5) PARP1 and PARP2 protein were expressed, purified, and diluted in assay buffer containing 50 mM Tris pH 8.0, 0.001% Triton X-100, 10 mM MgCl2, 150 mM NaCl to a final concentration of 20 nM. The PARPi-FL was then added at a final concentration of 3 nM.
(§6) The assay plate is centrifuged at 1000 rpm for 1 min and incubated for 4 h at room temperature.
(§7) The fluorescent polarization is read using an Envision plate reader using the following settings: […]

PARP2 = PARP2 (Homo sapiens (Human), UniProt Q9UGN5); assay: as above; type: binding
Chain of PARP2 (Q9UGN5 whole entry): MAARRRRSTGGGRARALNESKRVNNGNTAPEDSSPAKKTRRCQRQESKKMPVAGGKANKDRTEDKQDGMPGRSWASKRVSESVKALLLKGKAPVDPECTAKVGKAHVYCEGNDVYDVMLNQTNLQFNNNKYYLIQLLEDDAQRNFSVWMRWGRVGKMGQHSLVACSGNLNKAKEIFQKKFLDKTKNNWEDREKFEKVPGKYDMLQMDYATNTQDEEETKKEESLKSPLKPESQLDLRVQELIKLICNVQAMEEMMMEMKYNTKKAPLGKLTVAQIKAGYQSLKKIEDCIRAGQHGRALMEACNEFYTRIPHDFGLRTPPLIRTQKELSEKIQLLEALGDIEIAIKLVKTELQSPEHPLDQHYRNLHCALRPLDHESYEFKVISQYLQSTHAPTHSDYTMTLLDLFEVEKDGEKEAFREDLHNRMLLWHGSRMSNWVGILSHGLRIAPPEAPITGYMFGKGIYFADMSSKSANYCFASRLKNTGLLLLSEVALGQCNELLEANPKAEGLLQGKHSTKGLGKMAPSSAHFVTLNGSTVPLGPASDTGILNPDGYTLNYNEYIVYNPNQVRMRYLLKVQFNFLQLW
Procedure: as §3, §4, §5, §6, §7

[2] = 20 nM protein, 3 nM PARPi-FL, 4 h at room temperature, read-out: IC50 FP PARP2

Structure (SMILES)	EC50 (DLD-1 BRCA2(−/−) cells) [µM]	EC50 [1] [µM]	IC50 (PARP1) [µM]	IC50 (PARP2; [2]) [µM]	IC50 (PARP2) [µM]
CCc1cc2ncc(CN3C[C@H](Oc4ccc(C(=O)NC)nc4)[C@H]3C)cc2[nH]c1=O [Example 17, 5-{[(2R,3S)-1-[(7-ethyl-6-oxo-5H-1,5-naphthyridin-3-yl)methyl]-2-methylazetidin-3-yl]oxy}-N-methylpyridine-2-carboxamide]	0.0012	0.00079	0.0073	21	–
CCc1cc2ncc(CN3C[C@H](Oc4ccc(C(=O)NC)nc4)[C@@H]3C)cc2[nH]c1=O [Example 20, 5-(((2S,3S)-1-((7-ethyl-6-oxo-5,6-dihydro-1,5-naphthyridin-3-yl)methyl)-2-methylazetidin-3-yl)oxy)-N-methylpicolinamide]	0.04	0.035	0.0056	19	–
CCc1cc2ncc(CN3CC(Oc4ccc(C(=O)NC5CC5)nc4)C3)cc2[nH]c1=O [Example 21, N-cyclopropyl-5-({1-[(7-ethyl-6-oxo-5H-1,5-naphthyridin-3-yl)methyl]azetidin-3-yl}oxy)pyridine-2-carboxamide]	0.0018	0.0012	0.0066	14	–
CCc1cc2ncc(CN3CC(Oc4ccc(C#N)cc4)C3)cc2[nH]c1=O [Example 22, 4-({1-[(7-ethyl-6-oxo-5H-1,5-naphthyridin-3-yl)methyl]azetidin-3-yl}oxy)benzonitrile]	0.037	0.027	0.0051	16	–
CCc1cc2ncc(CN3CC(Oc4ccc(C#N)nc4)C3)cc2[nH]c1=O [Example 24]	0.013	0.024	0.0091	17	–
CNC(=O)c1ncc(O[C@@H]2CCN(Cc3cnc4cc(C5CC5)c(=O)[nH]c4c3)C2)cc1F [Example 25]	0.036	0.041	0.011	25	–
Cc1cc2ncc(CN3CC[C@@H](Oc4cnc(C(=O)NC5CC5)c(F)c4)C3)cc2[nH]c1=O [Example 26]	0.055	0.06	0.012	> 100	–
CCc1cc2ncc(CN3CC[C@@H](Oc4cnc(C(=O)NC)c(F)c4)C3)cc2[nH]c1=O [Example 27]	0.019	0.018	0.0067	9.1	–
CCc1cc2ncc(CN3CC[C@@H](Oc4ccc(C(=O)NC)nc4C#N)C3)cc2[nH]c1=O [Example 28]	0.015	0.0033	0.0039	> 100	–
CCc1cc2ncc(CN3CC[C@@H](Oc4ccc(C#N)cn4)C3)cc2[nH]c1=O [Example 29]	0.078	0.14	0.011	72	–
CCc1nc2cc(F)c(CN3CC(Oc4ccc(C(=O)NC)nc4)C3)cc2[nH]c1=O [Example 30]	0.015	0.047	0.0077	> 100	–
CCc1cc2ncc(CN3C[C@H](Oc4ccc(C(=O)NC)nc4)C[C@H]3C)cc2[nH]c1=O [Example 31]	0.013	0.031	0.037	> 100	–
CCc1nc2cc(F)c(CN3CC[C@@H](Oc4ccc(C(=O)NC)nc4)C3)cc2[nH]c1=O [Example 32]	0.0064	0.016	0.0068	> 100	–
CCc1cc2ncc(CN3C[C@H](Oc4ccc(C#N)nc4)[C@H]3C)cc2[nH]c1=O [Example 36]	0.012	0.0037	0.005	15	–
Cc1cc2ncc(CN3C[C@H](Oc4ccc(C#N)nc4)[C@H]3C)cc2[nH]c1=O [Example 37]	0.08	0.066	0.0045	> 100	–
[2H]C([2H])([2H])NC(=O)c1ccc(O[C@H]2CN(Cc3cnc4cc(CC)c(=O)[nH]c4c3)[C@@H]2C)cn1 [Example 39]	0.0013	0.0011	0.0043	–	5.9
[2H]C([2H])([2H])NC(=O)c1ccc(O[C@H]2CN(C([2H])([2H])c3cnc4cc(CC)c(=O)[nH]c4c3)[C@@H]2C)cn1 [Example 45]	0.0015	0.00087	0.005	–	6.9
CCc1cn2nc(CN3C[C@H](Oc4ccc(C(=O)NC)nc4)[C@H]3C)cc2[nH]c1=O [Example 46]	0.09	0.1	0.0099	> 100	–

More lines, main results first:

EC50 (DLD-1 BRCA2(−/−) cells) [µM]	EC50 [1] [µM]	IC50 (PARP1) [µM]	IC50 (PARP2; [2]) [µM]	Structure (SMILES)	IC50 (PARP2) [µM]
0.0042	0.0037	0.0055	33	CCc1cc2ncc(CN3CC[C@@H](Oc4ccc(C(=O)NC5COC5)nc4)C3)cc2[nH]c1=O [Example 33]	–
0.15	0.084	0.013	12	CCc1cc2ncc(CN3C[C@H](Oc4ccc(C#N)cn4)[C@H]3C)cc2[nH]c1=O [Example 34]	–
0.0099	0.032	0.0036	> 100	CNC(=O)c1ccc(O[C@@H]2CCN(Cc3cnc4c(c3)[nH]c(=O)c3ccoc34)C2)cn1 [Example 35]	–
0.0029	0.0023	0.0061	10	CCc1cc2ncc(CN3C[C@H](Oc4cnc(C(=O)NC)c(F)c4)[C@H]3C)cc2[nH]c1=O [Example 38]	–
0.18	0.13	0.0055	32	CCc1cc2ncc(CN3CC(n4ccc5nc(C(=O)NC)ccc54)C3)cc2[nH]c1=O [Example 40]	–
0.0032	0.003	0.0076	8.3	CNC(=O)c1ccc(O[C@H]2CN(Cc3cnc4cc(C5CC5)c(=O)[nH]c4c3)[C@@H]2C)cn1 [Example 41]	–
0.0021	0.0011	0.0058	6.3	C[C@@H]1[C@@H](Oc2ccc(C(=O)NC3CC3)nc2)CN1Cc1cnc2cc(C3CC3)c(=O)[nH]c2c1 [Example 42]	–
0.0011	0.00046	0.0066	2.9	CCc1cc2ncc(CN3C[C@H](Oc4ccc(C(=O)NC5CC5)nc4)[C@H]3C)cc2[nH]c1=O [Example 43, N-cyclopropyl-5-{[(2R,3S)-1-[(7-ethyl-6-oxo-5H-1,5-naphthyridin-3-yl)methyl]-2-methylazetidin-3-yl]oxy}pyridine-2-carboxamide]	–
0.0035	0.0013	0.0067	11	CCc1cc2ncc(CN3C[C@H](Oc4ccc(C(=O)NC5COC5)nc4)[C@H]3C)cc2[nH]c1=O [Example 44, 5-(((2R,3S)-1-((7-ethyl-6-oxo-5,6-dihydro-1,5-naphthyridin-3-yl)methyl)-2-methylazetidin-3-yl)oxy)-N-(oxetan-3-yl)picolinamide]	–
0.1	0.1	0.0058	88	Cc1cc2ncc(CN3C[C@H](Oc4ccc(C#N)cc4)[C@H]3C)cc2[nH]c1=O [Example 47]	–
0.0057	0.0032	0.0062	3.5	CCc1cc2ncc(CN3C[C@H](Oc4ccc(C#N)cc4)[C@H]3C)cc2[nH]c1=O [Example 48]	–
0.0092	0.0095	0.0063	> 100	CCc1cc2ncc(CN3CC[C@@H](n4ccc5nc(C(=O)NC)ccc54)C3)cc2[nH]c1=O [Example 49]	–
